Measured values published in US5047398A, “DDAVP antidiuretic and method therefor” (Ferring B.V., priority 1983, dated 1991).
Read-outs that look alike come from different tables or passages of the source.

Experiments:
[1] = test system: healthy subjects; format: in vivo, human
Description: Ten healthy subjects of both sexes, aged 18 through 43 were treated with DDAVP and 4-Asn-DDAVP.
One to two hours after a normal breakfast, the subjects were hydrated by drinking the volume of tap water that corresponded to 2% of their body weight. Every 15 minutes, urine was collected and its volume and osmolality were measured using an Advanced Osmometer Model 3D11. In order to overhydrate themselves, the subjects substituted their loss of fluid by drinking a volume of tap water that corresponded to the amount of urine collected. After about 40 to 45 minutes, the diuresis increased to about 200 milliliters per 15 minute period. At that time, DDAVP or 4-Asn-DDAVP in amounts of from 20 to 200 micrograms was administered perorally in 50 milliliters of distilled water. The DDAVP and 4-Asn-DDAVP were supplied by Ferring AB in lyophilized powder form which could easily be dissolved in water. The water diuresis was followed continually up to 6 hours.

[2] = test system: healthy subjects; assay: Water diuresis in overhydrated subjects after injection through a duodenal tube; format: in vivo, human; conditions: 200 micrograms in 10 ml water through duodenal tube, two subjects
Description: Two of the subjects were supplied with a duodenal tube which was inserted through the nose. The end of the tube was placed with the help of X-rays in the distal part of the duodenum. Overhydration and urine sampling were then carried out as described above. […] After this, 200 micrograms of DDAVP dissolved in 10 milliliters of water were injected through a tube.

[3] = in vivo; cited from earlier work

In the case of `NC(=O)CC[C@@H]1NC(=O)[C@H](Cc2ccccc2)NC(=O)[C@H](Cc2ccc(O)cc2)NC(=O)CCSSC[C@@H](C(=O)N2CCC[C@H]2C(=O)N[C@H](CCCN=C(N)N)C(=O)NCC(N)=O)NC(=O)[C@H](CC(N)=O)NC1=O` [DDAVP, 1-deamino-8-D-arginine vasopressin], the side-effects ([1]; human, in vivo) is reported as “no side-effects were experienced”, the “therapeutic (antidiuretic) effect” value ([1]; peroral, 20 microgram dosage) is reported as “therapeutic effect was obtained” and the “dose dependence of antidiuretic response (magnitude and duration)” value ([1]; peroral, 20 to 200 micrograms in 50 ml distilled water) is reported as “dosedependent effect”. For the same compound, the “duration of antidiuretic effect” value ([1]; peroral, 20 to 200 micrograms, diuresis followed up to 6 hours) was “at least 6 hours”, the “antidiuretic response with increase in osmolality and conductivity of urine” value [2] was “immediate antidiuretic response” and the antidiuretic activity [3] was “high and specific antidiuretic activity”.
In the case of “1-deamino-4-asparagine-8-D-arginine-vasopressin [Example 4-Asn-DDAVP]”, the “therapeutic (antidiuretic) effect” value ([1]; oral, dose of 100 micrograms) is reported as “no therapeutic effect” and the antidiuretic effect ([1]; oral, doses 20 to 200 micrograms, effect only with the highest dose) is reported as “only a moderate, extremely short-lived, effect”.
